Earlier results as cited in patent US20040019115A1, “Use of milnacipran for the treatment of tension-type headache” (priority 2002, published 2004).

Settings: patients with chronic tension-type headache, prophylactic treatment

In the case of `CN(C)CCC=C1c2ccccc2CCc2ccccc21` [Amitriptyline], the reduction of headache is listed as 30%.
